In general, efflux ratio refers to a quotient of directional permeabilities that is used to spot active efflux. Broadly, the IC50 is the concentration at which inhibition is half-maximal.

We go through six compounds from ChEMBL document CHEMBL1949654, “Discovery of a Potent Pyrazolopyridine Series of γ-Secretase Modulators” (ACS Med Chem Lett, 2011).

In series [1] the test system is Rattus norvegicus. As to the kind of experiment: Antialzheimer activity in CD rat assessed as reduction in amyloid beta (1 to 40) CSF level at 30 mg/kg, po measured after 3 hrs. The arrangement: dose 30 mg/kg. In kind it is functional, organism-based.
A further series deals with HEK293. As to the kind of experiment: Inhibition of gamma-secretase expressed in HEK293 cells assessed as reduction in Notch cleavage up to 20 uM. In kind it is cell-based.
Series [2] concerns P-glycoprotein. As to the kind of experiment: Drug transport assessed as P-glycoprotein-mediated efflux ratio of compound transport from basolateral to apical side over apical to basolateral side. The class given is ADME. The note with it: not told.
For the next series, the species on record is Canis lupus familiaris. Nature of the series: Inhibition of dog gamma-secretase assessed as reduction in reduction in Hes-1 expression up to 20 uM.
The nature of series [3]: Selectivity ratio of IC50 for gamma secretase-mediated amyloid beta total production to IC50 for gamma secretase-mediated amyloid beta (1 to 42) production.
For series [4], the system named is Rattus norvegicus. As to the kind of experiment: Antialzheimer activity in CD rat assessed as reduction in amyloid beta total CSF level at 30 mg/kg, po measured after 3 hrs. In kind it is functional, organism-based. Details: dose 30 mg/kg.
For another series, the species on record is Mus musculus. Nature of the series: Inhibition of mouse gamma-secretase assessed as reduction in reduction in Hes-1 expression up to 20 uM.
Series [5] is described as follows: Drug uptake in CD rat plasma at 30 mg/kg, po measured after 3 hrs. The arrangement: dose 30 mg/kg, route oral. The class given is ADME, organism-based.
The test system of series [6] is Rattus norvegicus. Nature of the series: Antialzheimer activity in CD rat assessed as reduction in amyloid beta (1 to 42) CSF level at 30 mg/kg, po measured after 3 hrs. In kind it is functional.
A short description of series [7]: Inhibition of gamma secretase-mediated amyloid beta (1 to 42) production expressed in HEK293 cells overexpressing APP Swedish mutant after 5 hrs by immunoassay. In kind it is cell-based.
The subject of series [8] is P-glycoprotein. Nature of the series: Drug transport assessed as P-glycoprotein-mediated apical to basolateral permeability. In kind it is ADME. The note with it: not told; read-out: permeability.
Series [9] deals with P-glycoprotein. As to the kind of experiment: Drug transport assessed as P-glycoprotein-mediated basolateral to apical permeability. In kind it is ADME. The note with it: not told; read-out: permeability.
Series [10] can be described thus: Drug uptake in CD rat brain at 30 mg/kg, po measured after 3 hrs. The note with it: read-out: Drug uptake. The arrangement: dose 30 mg/kg, route oral. In kind it is ADME, organism-based.

Structures are written as SMILES. Active and inactive are the calls of the source. The calls are words filed in the database; no cut-off is given here.

For the compound `COc1cc(-c2nnc3n([C@@H](C)c4cc(F)cc(F)c4)cccc2-3)ccc1-n1cnc(C)c1`, the inhibition result with Rattus norvegicus [1], in the series with HEK293, in the series filed under Canis lupus familiaris, with Rattus norvegicus [4] and in the series listed under Mus musculus was “inactive” in each case. In addition, the efflux ratio in the series on P-glycoprotein [2] worked out at 3.85. For the same compound, the Ratio IC50 in [3] amounted to 94. Also, the concentration at 3 h was 1960 nM in [5] and 140 nM in series [10]. Further, the outcome in the series with Rattus norvegicus [6] was inactive. Also, half-maximal inhibition in series [7] (IC50) required 117 nM. Also, the Papp A→B with P-glycoprotein [8] was found to be 8.5 ×10⁻⁶ cm/s. The Papp B→A in the series on P-glycoprotein [9] turned out to be 32.4 ×10⁻⁶ cm/s.
With `COc1cc(-c2nnc3n([C@@H](C)c4cc(F)c(F)c(F)c4)cc(Cl)cc2-3)ccc1-n1cnc(C)c1`, the inhibition entry with Rattus norvegicus [1], with HEK293, in the series filed under Canis lupus familiaris, in the series with Rattus norvegicus [4] and in the series filed under Mus musculus was “inactive” in each case. The Ratio IC50 in series [3] stood at 186. The concentration at 3 h in [5] was 5020 nM; in series [10], 1220 nM. In addition, the Activity in the series with Rattus norvegicus [6] turned out to be 45%. In series [7], this compound showed an IC50 of 107 nM.
On to `COc1cc(-c2nnc3n([C@@H](C)c4ccc(F)cc4)cccc2-3)ccc1-n1cnc(C)c1`, for which the inhibition result in the series on Rattus norvegicus [1], with HEK293, in the series listed under Canis lupus familiaris, with Rattus norvegicus [4] and in the series filed under Mus musculus was “inactive” throughout. Further, in the series with P-glycoprotein [2], the efflux ratio stood at 33.8. Further, in series [3], the Ratio IC50 stood at 205. Moreover, the results for the concentration at 3 h in series [5] and in series [10] were 2880 nM and 170 nM, respectively. Moreover, the outcome in the series on Rattus norvegicus [6] was inactive. The compound also displayed an IC50 in series [7] of 97 nM. Moreover, the Papp A→B in the series on P-glycoprotein [8] was found to be 0.9 ×10⁻⁶ cm/s. Moreover, in the series on P-glycoprotein [9], the Papp B→A came out at 31.4 ×10⁻⁶ cm/s.
`COc1cc(-c2nnc3n([C@@H](CO)c4ccc(F)cc4)cc(Cl)cc2-3)ccc1-n1cnc(C)c1`: the inhibition entry with Rattus norvegicus [1], in the series on HEK293, in the series listed under Canis lupus familiaris, in the series on Rattus norvegicus [4] and in the series listed under Mus musculus was “inactive” throughout. In addition, the Ratio IC50 in series [3] amounted to 119. In addition, the results for the concentration at 3 h in series [5] and in series [10] were 2150 nM and 100 nM, respectively. The result with Rattus norvegicus [6] was inactive. The same compound yielded an IC50 in series [7] of 168 nM.
For the compound `COc1cc(-c2nnc3n([C@@H](C)c4cc(F)ccc4F)cc(Cl)cc2-3)ccc1-n1cnc(C)c1`, the inhibition result in the series with Rattus norvegicus [1], in the series on HEK293, in the series listed under Canis lupus familiaris, with Rattus norvegicus [4] and in the series filed under Mus musculus was “inactive” each time. The Ratio IC50 in series [3] came out at 151. For the same compound, the concentration at 3 h in [5] came to 2520 nM; in [10], 740 nM. For the same compound, the Activity in the series with Rattus norvegicus [6] is recorded as 24%. Also, in series [7], the IC50 was 71 nM.
With `COc1cc(-c2nnc3n([C@@H](C)c4ccc(F)cc4)cc(C)cc2-3)ccc1-n1cnc(C)c1`, the inhibition result in the series with Rattus norvegicus [1], with HEK293, in the series listed under Canis lupus familiaris, in the series on Rattus norvegicus [4] and in the series listed under Mus musculus was “inactive” each time. Moreover, the efflux ratio with P-glycoprotein [2] was determined as 8.5. For the same compound, the Ratio IC50 in series [3] amounted to 161. The outcome in the series on Rattus norvegicus [6] was inactive. The same compound displayed an IC50 in [7] of 85 nM. Besides, in the series with P-glycoprotein [8], the Papp A→B came out at 4.8 ×10⁻⁶ cm/s. Further, the Papp B→A with P-glycoprotein [9] was 41.2 ×10⁻⁶ cm/s.
